Test: dissolution into hexane solution at room temperature
Type: physicochemical
Method: Also, experiments were carried out in which the polyacene derivative of example 1, the polyacene derivative of example 2, the polyacene derivative of example 3 and the polyacene derivative of example 4 were respectively dissolved into hexane solution at room temperature. […] Also, the polyacene derivative of the inventive example 4 of which number of the substituents is less than that of the polyacene derivative of example 2 by four was dissolved into the hexane solution.

SMILES	solubility in hexane solution
CCCCc1c(C(=O)OC)c(C(=O)OC)c(CCCC)c2cc3c(CCCC)c4cc5c(CC)c(CC)c(CC)c(CC)c5cc4c(CCCC)c3cc12 [example 1, 2,3-bis methoxycarbonyl-1,4,6,13-tetrabutyl-8,9,10,11-tetraethyl pentacene]	dissolved
CCc1c(CC)c(CC)c2cc3c(CC)c4cc5c(CC)c(C(=O)OC)c(C(=O)OC)c(CC)c5cc4c(CC)c3cc2c1CC [example 2, 2,3-bis methoxycarbonyl-1,4,6,8,9,10,11 13-octaethyl pentacene]	hardly dissolved
CCCCc1c(C(=O)OC)c(C(=O)OC)c(CCCC)c2cc3c(CCCC)c4cc5ccccc5cc4c(CCCC)c3cc12 [example 4, 2,3-bis methoxycarbonyl-1,4,6,13-tetrabuyl pentacene]	dissolved
CCCc1c(C(=O)OC)c(C(=O)OC)c(CCC)c2cc3c(CCC)c4cc5c(CC)c(CC)c(CC)c(CC)c5cc4c(CCC)c3cc12 [example 3, 2,3-bis methoxycarbonyl-8,9,10,11-tetra ethyl-1,4,6,13-tetra propyl pentacene]	dissolved

From patent US8115197B2, “Organic semiconductor material, organic semiconductor thin film and organic semiconductor device” (Sony Corporation, priority 2005, dated 2012)
